Measured values published in patent US20260297081A1, “COMPOUNDS AND METHODS OF TREATING CANCERS” (Cullgen Inc., priority 2023, published 2026).

System: MCF7 cells
Test: Anti-proliferation (viability) of MCF7 cells (Table 7, FIG. 2B)
Format: cell-based
Conditions: Homo sapiens, MCF7, MCF7 cells, 3-6 days, 10-point serial dilution; read-out: GI IC50 in MCF-7

IC50 [nM] | SMILES
> 100 | CNc1ccc(C(=O)Nc2cn(C)c(C3CC3)n2)c(NC2CCC3(CC2)CC(NC(=O)CN2CCN(c4ccc(Nc5ncc6c(C)c(C(C)=O)c(=O)n(C7CCCC7)c6n5)nc4)CC2)C3)n1 (stereo not drawn) [CPD-347, 2-((2-(2-(4-(6-((6-acetyl-8-cyclopentyl-5-methyl-7-oxo-7,8-dihydropyrido[2,3-d]pyrimidin-2-yl)amino)pyridin-3-yl)piperazin-1-yl)acetamido)spiro[3.5]nonan-7-yl)amino)-N-(2-cyclopropyl-1-methyl-1H-imidazol-4-yl)-6-(methylamino)nicotinamide]
> 100 | CNc1ccc(C(=O)Nc2ccc(N(C)C)nn2)c(NC2CC3(C2)CN(C(=O)C2CC(N4CCN(c5ccc(Nc6ncc7c(C)c(C(C)=O)c(=O)n(C8CCCC8)c7n6)nc5)CC4)C2)C3)n1 (stereo not drawn) [CPD-348, 2-((2-(3-(4-(6-((6-acetyl-8-cyclopentyl-5-methyl-7-oxo-7,8-dihydropyrido[2,3-d]pyrimidin-2-yl)amino)pyridin-3-yl)piperazin-1-yl)cyclobutane-1-carbonyl)-2-azaspiro[3.3]heptan-6-yl)amino)-N-(6-(dimethylamino)pyridazin-3-yl)-6-(methylamino)nicotinamide]
> 100 | CC(=O)c1c(C)c2cnc(Nc3ccc(N4CCN(CC(=O)NC5CC6(C5)CC(Nc5nc(C(C)O)ccc5C(=O)Nc5cn(C)c(C7CC7)n5)C6)CC4)cn3)nc2n(C2CCCC2)c1=O (stereo not drawn) [CPD-349, 2-((6-(2-(4-(6-((6-acetyl-8-cyclopentyl-5-methyl-7-oxo-7,8-dihydropyrido[2,3-d]pyrimidin-2-yl)amino)pyridin-3-yl)piperazin-1-yl)acetamido)spiro[3.3]heptan-2-yl)amino)-N-(2-cyclopropyl-1-methyl-1H-imidazol-4-yl)-6-(1-hydroxyethyl)nicotinamide]
> 100 | CNc1ccc(C(=O)Nc2ccc(N(C)C)nn2)c(NC2CCC(C(=O)N3CCC4(CC3)CCN(c3ccc(Nc5ncc6c(C)c(C(C)=O)c(=O)n(C7CCCC7)c6n5)nc3)CC4)CC2)n1 (stereo not drawn) [CPD-350, 2-((4-(9-(6-((6-acetyl-8-cyclopentyl-5-methyl-7-oxo-7,8-dihydropyrido[2,3-d]pyrimidin-2-yl)amino)pyridin-3-yl)-3,9-diazaspiro[5.5]undecane-3-carbonyl)cyclohexyl)amino)-N-(6-(dimethylamino)pyridazin-3-yl)-6-(methylamino)nicotinamide]
> 100 | CNc1ccc(C(=O)Nc2ccc(N(C)C)nn2)c(NC2CCC(C(=O)N3CC4(CCN(c5ccc(Nc6ncc7c(C)c(C(C)=O)c(=O)n(C8CCCC8)c7n6)nc5)CC4)C3)CC2)n1 (stereo not drawn) [CPD-351, 2-((4-(7-(6-((6-acetyl-8-cyclopentyl-5-methyl-7-oxo-7,8-dihydropyrido[2,3-d]pyrimidin-2-yl)amino)pyridin-3-yl)-2,7-diazaspiro[3.5]nonane-2-carbonyl)cyclohexyl)amino)-N-(6-(dimethylamino)pyridazin-3-yl)-6-(methylamino)nicotinamide]
> 100 | CC(=O)c1c(C)c2cnc(Nc3ccc(N4CCN(CC(=O)NC5CC6(C5)CC(Nc5nc(C(C)(C)O)ccc5C(=O)Nc5cn(C)c(C7CC7)n5)C6)CC4)cn3)nc2n(C2CCCC2)c1=O (stereo not drawn) [CPD-352, 2-((6-(2-(4-(6-((6-acetyl-8-cyclopentyl-5-methyl-7-oxo-7,8-dihydropyrido[2,3-d]pyrimidin-2-yl)amino)pyridin-3-yl)piperazin-1-yl)acetamido)spiro[3.3]heptan-2-yl)amino)-N-(2-cyclopropyl-1-methyl-1H-imidazol-4-yl)-6-(2-hydroxypropan-2-yl)nicotinamide]
> 100 | [2H]C([2H])([2H])Nc1ccc(C(=O)Nc2cc(C)n(C)n2)c(NC2CC(C(C)NC(=O)CN3CCN(c4ccc(Nc5ncc6c(C)c(C(C)=O)c(=O)n(C7CCCC7)c6n5)nc4)CC3)C2)n1 (stereo not drawn) [CPD-353, 2-((3-(1-(2-(4-(6-((6-acetyl-8-cyclopentyl-5-methyl-7-oxo-7,8-dihydropyrido[2,3-d]pyrimidin-2-yl)amino)pyridin-3-yl)piperazin-1-yl)acetamido)ethyl)cyclobutyl)amino)-N-(1,5-dimethyl-1H-pyrazol-3-yl)-6-((methyl-d3)amino)nicotinamide]
> 100 | CNc1ccc(C(=O)Nc2ccc(N(C)C)nn2)c(NCC2COC3(C2)CN(C(=O)CN2CCN(c4ccc(Nc5ncc6c(C)c(C(C)=O)c(=O)n(C7CCCC7)c6n5)nc4)CC2)C3)n1 (stereo not drawn) [CPD-354, 2-(((2-(2-(4-(6-((6-acetyl-8-cyclopentyl-5-methyl-7-oxo-7,8-dihydropyrido[2,3-d]pyrimidin-2-yl)amino)pyridin-3-yl)piperazin-1-yl)acetyl)-5-oxa-2-azaspiro[3.4]octan-7-yl)methyl)amino)-N-(6-(dimethylamino)pyridazin-3-yl)-6-(methylamino)nicotinamide]
50 to 100 | CC(=O)c1c(C)c2cnc(Nc3ccc(N4CCN(C(C)CC(=O)N5CC(Nc6nc(NC(C)C)ccc6C(=O)Nc6ccc(N(C)C)nn6)C5)CC4)cn3)nc2n(C2CCCC2)c1=O (stereo not drawn) [CPD-355, 2-((1-(3-(4-(6-((6-acetyl-8-cyclopentyl-5-methyl-7-oxo-7,8-dihydropyrido[2,3-d]pyrimidin-2-yl)amino)pyridin-3-yl)piperazin-1-yl)butanoyl)azetidin-3-yl)amino)-N-(6-(dimethylamino)pyridazin-3-yl)-6-(isopropylamino)nicotinamide]
50 to 100 | CC(=O)c1c(C)c2cnc(Nc3ccc(N4CCC(NCC(=O)N5CC(Nc6nc(NC(C)C)ccc6C(=O)Nc6ccc(N(C)C)nn6)C5)CC4)cn3)nc2n(C2CCCC2)c1=O [CPD-356, 2-((1-((1-(6-((6-acetyl-8-cyclopentyl-5-methyl-7-oxo-7,8-dihydropyrido[2,3-d]pyrimidin-2-yl)amino)pyridin-3-yl)piperidin-4-yl)glycyl)azetidin-3-yl)amino)-N-(6-(dimethylamino)pyridazin-3-yl)-6-(isopropylamino)nicotinamide]
< 50 | CC(=O)c1c(C)c2cnc(Nc3ccc(N4CCC(NCC(=O)N5CCC(Nc6nc(NC(C)C)ccc6C(=O)Nc6ccc(N(C)C)nn6)CC5)CC4)cn3)nc2n(C2CCCC2)c1=O [CPD-357, 2-((1-((1-(6-((6-acetyl-8-cyclopentyl-5-methyl-7-oxo-7,8-dihydropyrido[2,3-d]pyrimidin-2-yl)amino)pyridin-3-yl)piperidin-4-yl)glycyl)piperidin-4-yl)amino)-N-(6-(dimethylamino)pyridazin-3-yl)-6-(isopropylamino)nicotinamide]
> 100 | [2H]C([2H])([2H])Nc1ccc(C(=O)Nc2cc(C)on2)c(NC2CC(C(C)NC(=O)CN3CCN(c4ccc(Nc5ncc6c(C)c(C(C)=O)c(=O)n(C7CCCC7)c6n5)nc4)CC3)C2)n1 (stereo not drawn) [CPD-361, 2-((3-(1-(2-(4-(6-((6-acetyl-8-cyclopentyl-5-methyl-7-oxo-7,8-dihydropyrido[2,3-d]pyrimidin-2-yl)amino)pyridin-3-yl)piperazin-1-yl)acetamido)ethyl)cyclobutyl)amino)-6-((methyl-d3)amino)-N-(5-methylisoxazol-3-yl)nicotinamide]
> 100 | CNc1ccc(C(=O)Nc2ccc(N(C)C)nn2)c(NC2CC3(C2)CC(C(=O)N2CC(N4CCN(c5ccc(Nc6ncc7c(C)c(C(C)=O)c(=O)n(C8CCCC8)c7n6)nc5)CC4)C2)C3)n1 (stereo not drawn) [CPD-362, 2-((6-(3-(4-(6-((6-acetyl-8-cyclopentyl-5-methyl-7-oxo-7,8-dihydropyrido[2,3-d]pyrimidin-2-yl)amino)pyridin-3-yl)piperazin-1-yl)azetidine-1-carbonyl)spiro[3.3]heptan-2-yl)amino)-N-(6-(dimethylamino)pyridazin-3-yl)-6-(methylamino)nicotinamide]
> 100 | CNc1ccc(C(=O)Nc2ccc(N(C)C)nn2)c(NC2CC3(C2)CC(C(=O)N2CC4(CCN(c5ccc(Nc6ncc7c(C)c(C(C)=O)c(=O)n(C8CCCC8)c7n6)nc5)CC4)C2)C3)n1 (stereo not drawn) [CPD-363]
> 100 | CNc1ccc(C(=O)Nc2ccc(N(C)C)nn2)c(NC2CC3(C2)CN(C(=O)C2CN(C4CCN(c5ccc(Nc6ncc7c(C)c(C(C)=O)c(=O)n(C8CCCC8)c7n6)nc5)CC4)C2)C3)n1 [CPD-364, 2-((2-(1-(1-(6-((6-acetyl-8-cyclopentyl-5-methyl-7-oxo-7,8-dihydropyrido[2,3-d]pyrimidin-2-yl)amino)pyridin-3-yl)piperidin-4-yl)azetidine-3-carbonyl)-2-azaspiro[3.3]heptan-6-yl)amino)-N-(6-(dimethylamino)pyridazin-3-yl)-6-(methylamino)nicotinamide]
< 50 | CC(=O)c1c(C)c2cnc(Nc3ccc(N4CCN(C(C)CC(=O)NC5CC(Nc6nc(NC(C)C)ccc6C(=O)Nc6ccc(N(C)C)nn6)C5)CC4)cn3)nc2n(C2CCCC2)c1=O (stereo not drawn) [CPD-365, 2-((3-(3-(4-(6-((6-acetyl-8-cyclopentyl-5-methyl-7-oxo-7,8-dihydropyrido[2,3-d]pyrimidin-2-yl)amino)pyridin-3-yl)piperazin-1-yl)butanamido)cyclobutyl)amino)-N-(6-(dimethylamino)pyridazin-3-yl)-6-(isopropylamino)nicotinamide]
> 100 | CC(=O)c1c(C)c2cnc(Nc3ccc(N4CCN(C5(C(=O)NC6CC7(C6)CC(Nc6nc(NC(C)C)ccc6C(=O)Nc6cn(C)c(C8CC8)n6)C7)CC5)CC4)cn3)nc2n(C2CCCC2)c1=O (stereo not drawn) [CPD-366, 2-((6-(1-(4-(6-((6-acetyl-8-cyclopentyl-5-methyl-7-oxo-7,8-dihydropyrido[2,3-d]pyrimidin-2-yl)amino)pyridin-3-yl)piperazin-1-yl)cyclopropane-1-carboxamido)spiro[3.3]heptan-2-yl)amino)-N-(2-cyclopropyl-1-methyl-1H-imidazol-4-yl)-6-(isopropylamino)nicotinamide]
50 to 100 | CC(=O)c1c(C)c2cnc(Nc3ccc(N4CCN(CC(=O)N5CCC(Nc6nc(NC(C)C)ccc6C(=O)Nc6ccc(N(C)C)nn6)CC5)CC4)cn3)nc2n(C2CCCC2)c1=O [CPD-369, 2-((1-(2-(4-(6-((6-acetyl-8-cyclopentyl-5-methyl-7-oxo-7,8-dihydropyrido[2,3-d]pyrimidin-2-yl)amino)pyridin-3-yl)piperazin-1-yl)acetyl)piperidin-4-yl)amino)-N-(6-(dimethylamino)pyridazin-3-yl)-6-(isopropylamino)nicotinamide]
